# According to patent EP4707279A1, “SUBSTITUTED TRICYCLIC HETEROCYCLIC COMPOUND AS PHARMACEUTICAL FOR TREATMENT OR PREVENTION OF COVID-19” (priority 2023, dated 2024):
# Tests used:
# SARS-CoV-2 [1] = assay: CPE inhibition assay, anti-SARS-CoV-2 virus activity in vitro (Test Example 4); format: cell-based; conditions: for inhibition at 10 µM: Severe acute respiratory syndrome coronavirus 2, VeroE6/TMPRSS2, 72 h, read-out: Anti SARS-CoV-2 activity
# VeroE6-TMPRSS2 cells = conditions: 48 hours, CellTiter-Glo
# Description: (§1) To evaluate the cytotoxicity of the selected compound, CellTiter-Glo (registered trademark) Luminescent Cell Viability Assay (Promega Corporation, Madison, WI, USA) was conducted. Briefly, VeroE6-TMPRSS2 or Caco-2 cells (4×10^4 cells/well) were incubated with different concentrations of the compound for 48 hours, and then, the number of cells was measured as the amount of ATP in the cell lysate supernatant using CellTiter-Glo (registered trademark) Luminescent Cell Viability Assay method. The CC50 of the compound was calculated by GraphPad. The repeated test was conducted three times.
# (§2) VeroE6 (ATCC CRL-1586 (registered trademark)) and Vero E6-TMPRSS2 (BPS Bioscience Catalog #78081) as well as Caco-2 cells (ATCC HTB-37 (registered trademark)) were purchased as commercial products and they were passaged in Dulbecco's Modified Eagle Medium (DMEM, Gibco, CA, USA) supplemented with 10% heat-inactivated fetal bovine serum (FBS, Gibco, CA, USA), 50 U/mL penicillin, and 50 µg/mL streptomycin. All antibiotics and supplements were purchased from Thermo Fisher Scientific, Inc. (Waltham, MA).
# Caco-2 cells = conditions: 48 hours, CellTiter-Glo
# Description: as §1, §2
# SARS-CoV-2 [2] = assay: microbe, parasite or virus in culture; format: cell-based; conditions: Severe acute respiratory syndrome coronavirus 2, VeroE6-TMPRSS2 cells, read-out: inhibition of CPE
# [3] = CPE inhibition at 10 µM, VeroE6-TMPRSS2 cells, MOI 0.01, third day post infection, average of three tests
compound,measurement,setting,value
"O=C(NCc1ccc2ccccc2c1)[C@@H]1CC[C@H]2N1C(=O)[C@@H](Cc1ccccc1)N1C(=O)N(Cc3ccccc3)C(=O)N(Cc3ccccc3)[C@]21O [Compound 1D, (6R,9S,11aR,11bR)-1,3,6-Tribenzyl-11b-hydroxy-N-(naphthalen-2-ylmethyl)-2,4,7-trioxo-2H-pyrrolo[2',1':3,4] pyridazine[1,2-a][1,3,5]triazine-9-carboxamide]",Anti SARS-CoV-2 activity,SARS-CoV-2 [1]; 10 µM,A (a CPE inhibition effect of 5% or more)
same,CC50,VeroE6-TMPRSS2 cells,145 µM
same,CC50,Caco-2 cells,> 400 µM
CCC(CC)COC(=O)[C@H](C)N[P@](=O)(OC[C@H]1O[C@@](C#N)(c2ccc3c(N)ncnn23)[C@H](O)[C@@H]1O)Oc1ccccc1 [Remdesivir],inhibition at 10 µM,SARS-CoV-2 [2],≥ 90%
"Cc1noc([C@@H]2CC[C@H]3N2C(=O)[C@@H](Cc2ccccc2)N2C(=O)N(Cc4cccs4)C(=O)N(Cc4cccs4)C32O)n1 (stereo partly drawn) [Compound 18I, (6R,9S,11aR)-6-benzyl-11b-hydroxy-9-(3-methyl-1,2,4-oxadiazol-5-yl)-1,3-bis(thiophen-2-ylmethyl)hexahydro-2H-pyrrolo[2',1':3,4]pyridazine[1,2-a][1,3,5]triazine-2,4,7(3H,6H)-trione]",Anti SARS-CoV-2 activity,SARS-CoV-2 [1]; [3],B (a CPE inhibition effect of less than 5% but 1% or more)
"(6R,9S,10aR)-1,3,6-tribenzyl-10b-hydroxy-N-(naphthalen-2-ylmethyl)-2,4,7-trioxodecahydroazeto[2',1 ':3,4]pyrazino[1.2-a][1,3,5]triazine-9-carboxamide [Compound 20D]",Anti SARS-CoV-2 activity,SARS-CoV-2 [1]; [3],A (a CPE inhibition effect of 5% or more)
"CCOC(=O)[C@H]1CC[C@@H]2N1C(=O)[C@H](C(C)C)N1C(=O)N(Cc3ccccc3)C(=O)N(Cc3ccccc3)[C@@]21O [Compound 26A, Ethyl (6S,9R,11aS,11bS)-1,3-dibenzyl-11b-hydroxy-6-isopropyl-2,4,7-trioxodecahydro-2H-pyrrolo[2',1':3,4]pyrazi no[1,2-a][1,3,5] triazine-9-carboxylate]",inhibition at 10 µM,SARS-CoV-2 [1],> 5%
"CC[C@@]1(C(C)C)C(=O)N2[C@H](C(=O)NCc3ccc4ccccc4c3)CC[C@@H]2[C@@]2(O)N(Cc3ccccc3)C(=O)N(Cc3ccccc3)C(=O)N21 [Compound 29D, (6R,9S,11aR,11bR)-1,3-Dibenzyl-6-ethyl-11b-hydroxy-6-isopropyl-N-(naphthalen-2-ylmethyl)-2,4,7-trioxodecahydro-2H-pyrrolo[2',1':3,4] pyrazino[1,2-a][1,3,5] triazine-9-carboxamide]",inhibition at 10 µM,SARS-CoV-2 [1],> 5%
"CCOC(=O)[C@@H]1CC[C@H]2N1C(=O)[C@@H](Cc1ccccc1)N1C(=O)N(Cc3ccccc3)C(=O)N(Cc3ccccc3)[C@]21O [Compound 1A, Ethyl (6R,9S,11aR,11bR)-1,3,6-tribenzyl-11b-hydroxy-2,4,7-trioxodecahydro-2H-pyrrolo[2',1':3,4]pyrazino[1,2-a][1,3,5]triazine-9-carboxylate]",inhibition at 10 µM,SARS-CoV-2 [1],< 1%
"COC(=O)[C@@H]1CCC[C@H]2N1C(=O)[C@@H](Cc1ccccc1)N1C(=O)N(Cc3ccccc3)C(=O)N(Cc3ccccc3)C21O (stereo partly drawn) [Compound 25A, Methyl (6R,9S,12aR)-1,3,6-tribenzyl-12b-hydroxy-2,4,7-trioxododecahydropyri do[2',1':3,4]pyrazino[1,2-a][1,3,5]triazine-9-carboxylate]",inhibition at 10 µM,SARS-CoV-2 [1],> 5%
"O=C1[C@@H](Cc2ccccc2)N2C(=O)N(Cc3ccccc3)C(=O)N(Cc3ccccc3)C2=C2CCCN12 [Compound 9B, (R) 1.3.6-Tribenzyl-1,9,10,11-tetrahydro-2H-pyrrolo[2',1':3,4] pyridazino[1,2-a][1,3,5]triazine-2,4,7(3H,6H)-trione]",inhibition at 10 µM,SARS-CoV-2 [1],< 1%
